Assay results from patent publication US20030186967A1, “Acylresorcinol derivatives are selective vitronectin receptor inhibitors” (American Home Products Corporation, priority 1998, published 2003).

Molecular target: T1, Vitronectin receptor αVβ3 (Homo sapiens, UniProt P05106+P06756)
T1 construct: expressed in transfected cells; host or cells: 512P5 cells (plasma membrane preparation)
Test: Vitronectin Receptor αVβ3 Binding Assay
Details: read-out: VnR (IC50μM)

T1 sequence (P06756 31-889 limits assumed): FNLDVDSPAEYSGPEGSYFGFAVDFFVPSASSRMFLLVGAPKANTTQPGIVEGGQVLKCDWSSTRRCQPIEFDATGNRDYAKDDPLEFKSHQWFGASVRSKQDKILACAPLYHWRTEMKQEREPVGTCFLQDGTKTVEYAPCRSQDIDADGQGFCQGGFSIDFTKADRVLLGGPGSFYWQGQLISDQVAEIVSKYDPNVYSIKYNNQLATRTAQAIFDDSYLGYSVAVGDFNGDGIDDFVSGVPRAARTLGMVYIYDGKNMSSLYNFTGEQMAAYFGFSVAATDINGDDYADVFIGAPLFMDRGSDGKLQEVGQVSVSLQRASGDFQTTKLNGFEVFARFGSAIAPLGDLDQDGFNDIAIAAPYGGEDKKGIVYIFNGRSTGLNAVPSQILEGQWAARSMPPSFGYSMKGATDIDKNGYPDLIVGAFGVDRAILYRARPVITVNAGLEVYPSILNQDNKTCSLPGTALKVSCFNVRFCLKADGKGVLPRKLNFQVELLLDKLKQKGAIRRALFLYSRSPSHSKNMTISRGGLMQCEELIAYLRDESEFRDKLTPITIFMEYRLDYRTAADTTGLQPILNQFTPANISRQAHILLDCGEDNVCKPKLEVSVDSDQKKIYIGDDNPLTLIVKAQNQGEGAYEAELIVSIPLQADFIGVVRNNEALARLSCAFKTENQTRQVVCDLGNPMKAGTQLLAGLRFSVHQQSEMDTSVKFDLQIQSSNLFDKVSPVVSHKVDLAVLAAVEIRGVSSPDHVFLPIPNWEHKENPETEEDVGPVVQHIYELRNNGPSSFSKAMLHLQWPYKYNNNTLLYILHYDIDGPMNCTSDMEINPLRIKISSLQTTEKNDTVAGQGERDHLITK
T1 sequence (P06756 891-1048 partner limits assumed): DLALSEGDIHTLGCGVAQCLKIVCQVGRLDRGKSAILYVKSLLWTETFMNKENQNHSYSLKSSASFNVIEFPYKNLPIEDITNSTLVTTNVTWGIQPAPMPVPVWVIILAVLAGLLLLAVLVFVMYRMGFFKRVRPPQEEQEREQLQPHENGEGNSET
T1 sequence (P05106 27-788): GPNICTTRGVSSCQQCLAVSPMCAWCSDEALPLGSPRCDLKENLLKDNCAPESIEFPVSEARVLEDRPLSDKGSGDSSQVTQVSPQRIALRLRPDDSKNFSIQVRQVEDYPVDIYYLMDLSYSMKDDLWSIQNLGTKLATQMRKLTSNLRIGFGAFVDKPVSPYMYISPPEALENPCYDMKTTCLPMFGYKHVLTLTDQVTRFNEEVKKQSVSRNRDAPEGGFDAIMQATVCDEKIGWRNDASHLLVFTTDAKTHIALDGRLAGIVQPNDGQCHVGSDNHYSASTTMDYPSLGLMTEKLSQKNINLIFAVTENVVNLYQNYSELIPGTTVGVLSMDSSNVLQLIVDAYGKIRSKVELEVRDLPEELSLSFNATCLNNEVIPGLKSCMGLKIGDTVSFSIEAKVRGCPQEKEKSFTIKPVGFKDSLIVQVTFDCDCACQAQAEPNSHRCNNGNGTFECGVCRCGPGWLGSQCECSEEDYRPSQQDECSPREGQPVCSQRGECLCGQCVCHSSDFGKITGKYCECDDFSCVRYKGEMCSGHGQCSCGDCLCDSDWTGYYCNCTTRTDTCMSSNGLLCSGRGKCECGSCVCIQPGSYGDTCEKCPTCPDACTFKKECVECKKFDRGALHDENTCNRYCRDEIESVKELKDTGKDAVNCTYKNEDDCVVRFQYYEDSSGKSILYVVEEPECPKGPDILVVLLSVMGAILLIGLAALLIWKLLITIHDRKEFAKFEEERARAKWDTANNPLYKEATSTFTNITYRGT

| IC50 [µM] | Structure (SMILES) |
| --- | --- |
| 0.261 | O=C(Nc1cccc2ccccc12)N[C@@H](CNC(=O)c1ccc(OCCNC2=NCCCN2)cc1O)C(=O)O [Example 31, (2S)-3-({2-hydroxy-4-[2-(1,4,5,6-tetrahydropyrimidin-2-ylamino)ethoxy]benzoyl}-amino)-2-{[(1-naphthylamino)carbonyl]amino}propanoic acid] |
| 34 | CC(C)(C)COC(=O)N[C@@H](CNC(=O)c1ccc(OCCNc2ncccn2)cc1O)C(=O)O [Example 53, (2S)-3-({2-hydroxy-4-[2-(pyrimidin-2-ylamino)ethoxy]benzoyl}-amino)-2-{[(neopentyloxy)carbonyl]amino}propanoic acid] |
| 101 | O=C(N[C@@H](CNC(=O)c1ccc(OCCNc2ncccn2)cc1O)C(=O)O)OCc1ccccc1 [Example 55, (2S)-2-{[(benzyloxy)carbonyl]amino}-3-({2-hydroxy-4-[2-(pyrimidin-2-ylamino)ethoxy]benzoyl}amino)propanoic acid] |
| 100 | CCCCCCCCOC(=O)N[C@@H](CNC(=O)c1ccc(OCCNc2ncccn2)cc1O)C(=O)O [Example 58, (2S)-3-({2-hydroxy-4-[2-(pyrimidin-2-ylamino)ethoxy]benzoyl}amino)-2-{[(octyloxy)carbonyl]amino}propanoic acid] |
| 100 | CCOC(=O)N[C@@H](CNC(=O)c1ccc(OCCNc2ncccn2)cc1O)C(=O)O [Example 66, (2S)-2-[(ethoxycarbonyl)amino]-3-({2-hydroxy-4-[2-(pyrimidin-2-ylamino)-ethoxy]benzoyl}amino)propanoic acid] |
| 100 | CC(C)OC(=O)N[C@@H](CNC(=O)c1ccc(OCCNc2ncccn2)cc1O)C(=O)O [Example 68, (2S)-3-({2-hydroxy-4-[2-(pyrimidin-2-ylamino)ethoxy]benzoyl}amino)-2-[(isopropoxycarbonyl)amino]propanoic acid] |
| 100 | C=CCOC(=O)N[C@@H](CNC(=O)c1ccc(OCCNc2ncccn2)cc1O)C(=O)O [Example 69, (2S)-2-{[(allyloxy)carbonyl]amino}-3-({2-hydroxy-4-[2-(pyrimidin-2-ylamino)ethoxy]benzoyl}amino)propanoic acid] |
| > 1 | O=C(Nc1ccccc1)N[C@@H](CNC(=O)c1ccc(OCCNc2ncccn2)cc1O)C(=O)O [Example 71, (2S)-2-[(anilinocarbonyl)amino]-3-({2-hydroxy-4-[2-(pyrimidin-2-ylamino)ethoxy]-benzoyl}amino)propanoic acid] |
| > 1 | COc1ccccc1NC(=O)N[C@@H](CNC(=O)c1ccc(OCCNc2ncccn2)cc1O)C(=O)O [Example 79, (2S)-3-({2-hydroxy-4-[2-(pyrimidin-2-ylamino)ethoxy]benzoyl}amino)-2-{[(2-methoxyanilino)carbonyl]amino}propanoic acid] |
| > 1 | O=C(Nc1ccccc1Cl)N[C@@H](CNC(=O)c1ccc(OCCNc2ncccn2)cc1O)C(=O)O [Example 80, (2S)-2-{[(2-chloroanilino)carbonyl]amino}-3-({2-hydroxy-4-[2-(pyrimidin-2-ylamino)ethoxy]benzoyl}amino)propanoic acid] |
| > 1 | O=C(Nc1ccc(OC(F)(F)F)cc1)N[C@@H](CNC(=O)c1ccc(OCCNc2ncccn2)cc1O)C(=O)O [Example 85, (2S)-3-({2-hydroxy-4-[2-(pyrimidin-2-ylamino)ethoxy]benzoyl}amino)-2-({[4-(trifluoromethoxy)anilino]carbonyl}amino)propanoic acid] |
| > 1 | O=C(Nc1ccc(Cl)cc1)N[C@@H](CNC(=O)c1ccc(OCCNc2ncccn2)cc1O)C(=O)O [Example 86, (2S)-2-{[(4-chloroanilino)carbonyl]amino}-3-({2-hydroxy-4-[2-(pyrimidin-2-ylamino)ethoxy]benzoyl}amino)propanoic acid] |
| > 1 | O=C(NC1CCCCC1)N[C@@H](CNC(=O)c1ccc(OCCNc2ncccn2)cc1O)C(=O)O [Example 90, (2S)-2-{[(cyclohexylamino)carbonyl]amino}-3-({2-hydroxy-4-[2-(pyrimidin-2-ylamino)ethoxy]benzoyl}amino)propanoic acid] |
| > 1 | CCCCCCCCNC(=O)N[C@@H](CNC(=O)c1ccc(OCCNc2ncccn2)cc1O)C(=O)O [Example 94, (2S)-3-({2-hydroxy-4-[2-(pyrimidin-2-ylamino)ethoxy]benzoyl}amino)-2-{[(octylamino)carbonyl]amino}propanoic acid] |
| 0.105 | CC(C)(C)COC(=O)N[C@@H](CNC(=O)c1ccc(OCCNC2=NCCN2)cc1O)C(=O)O [Example 95] |

Continued, compound first:

| Structure (SMILES) | IC50 [µM] |
| --- | --- |
| O=C(Nc1ccc(Cl)cc1)N[C@@H](CNC(=O)c1ccc(OCCNC2=NCCCN2)cc1O)C(=O)O [Example 30, (2S)-2-{[(4-chloroanilino)carbonyl]amino}-3-({2-hydroxy-4-[2-(1,4,5,6-tetrahydropyrimidin-2-ylamino)ethoxy]benzoyl}amino)propanoic acid] | 1.27 |
| O=C(N[C@@H](CNC(=O)c1ccc(OCCNc2ncccn2)cc1O)C(=O)O)Oc1ccccc1 [Example 54, (2S)-3-({2-hydroxy-4-[2-(pyrimidin-2-ylamino)ethoxy]benzoyl}amino)-2-[(phenoxycarbonyl)amino]propanoic acid] | 34 |
| CC(C)COC(=O)N[C@@H](CNC(=O)c1ccc(OCCNc2ncccn2)cc1O)C(=O)O [Example 56, (2S)-3-({2-hydroxy-4-[2-(pyrimidin-2-ylamino)ethoxy]benzoyl}amino)-2-[(isobutoxycarbonyl)amino]propanoic acid] | 85.8 |
| CCCCOC(=O)N[C@@H](CNC(=O)c1ccc(OCCNc2ncccn2)cc1O)C(=O)O [Example 59, (2S)-2-[(butoxycarbonyl)amino]-3-({2-hydroxy-4-[2-(pyrimidin-2-ylamino)ethoxy]benzoyl}amino)propanoic acid] | 100 |
| CCCCCCOC(=O)N[C@@H](CNC(=O)c1ccc(OCCNc2ncccn2)cc1O)C(=O)O [Example 62, (2S)-2-{[(hexyloxy)carbonyl]amino}-3-({2-hydroxy-4-[2-(pyrimidin-2-ylamino)-ethoxy]benzoyl}amino)propanoic acid] | 100 |
| COC(=O)N[C@@H](CNC(=O)c1ccc(OCCNc2ncccn2)cc1O)C(=O)O [Example 65, (2S)-3-({2-hydroxy-4-[2-(pyrimidin-2-ylamino)ethoxy]benzoyl}amino)-2-[(methoxycarbonyl)amino]propanoic acid] | 100 |
| CCCOC(=O)N[C@@H](CNC(=O)c1ccc(OCCNc2ncccn2)cc1O)C(=O)O [Example 67, (2S)-3-({2-hydroxy-4-[2-(pyrimidin-2-ylamino)ethoxy]benzoyl}amino)-2-[(propoxycarbonyl)amino]propanoic acid] | 100 |
| C=CCCOC(=O)N[C@@H](CNC(=O)c1ccc(OCCNc2ncccn2)cc1O)C(=O)O [Example 70, (2S)-2-{[(but-3-enyloxy)carbonyl]amino}-3-({2-hydroxy-4-[2-(pyrimidin-2-ylamino)ethoxy]benzoyl}amino)propanoic acid] | 100 |
| CC(C)(C)NC(=O)N[C@@H](CNC(=O)c1ccc(OCCNc2ncccn2)cc1O)C(=O)O [Example 72, (2S)-2-{[(tert-butylamino)carbonyl]amino}-3-({2-hydroxy-4-[2-(pyrimidin-2-ylamino)ethoxy]benzoyl}amino)propanoic acid] | > 1 |
| CCCCNC(=O)N[C@@H](CNC(=O)c1ccc(OCCNc2ncccn2)cc1O)C(=O)O [Example 73, (2S)-2-{[(butylamino)carbonyl]amino}-3-({2-hydroxy-4-[2-(pyrimidin-2-ylamino)ethoxy]benzoyl}amino)propanoic acid] | > 1 |
| Cc1ccccc1NC(=O)N[C@@H](CNC(=O)c1ccc(OCCNc2ncccn2)cc1O)C(=O)O [Example 78, (2S)-3-({2-hydroxy-4-[2-(pyrimidin-2-ylamino)ethoxy]benzoyl}amino)-2-[(2-toluidinocarbonyl)amino]propanoic acid] | > 1 |
| O=C(Nc1ccccc1Br)N[C@@H](CNC(=O)c1ccc(OCCNc2ncccn2)cc1O)C(=O)O [Example 81, (2S)-2-{[(2-bromoanilino)carbonyl]amino}-3-({2-hydroxy-4-[2-(pyrimidin-2-ylamino)ethoxy]benzoyl}amino)propanoic acid] | > 1 |
| O=C(Nc1ccccc1-c1ccccc1)N[C@@H](CNC(=O)c1ccc(OCCNc2ncccn2)cc1O)C(=O)O [Example 82, (2S)-2-{[([1,1′-biphenyl]-2-ylamino)carbonyl]amino}-3-({2-hydroxy-4-[2-(pyrimidin-2-ylamino)ethoxy]benzoyl}amino)propanoic acid] | > 1 |
| Cc1ccc(NC(=O)N[C@@H](CNC(=O)c2ccc(OCCNc3ncccn3)cc2O)C(=O)O)cc1 [Example 83, (2S)-3-({2-hydroxy-4-[2-(pyrimidin-2-ylamino)ethoxy]benzoyl}amino)-2-[(4-toluidinocarbonyl)amino]propanoic acid] | > 1 |
| O=C(Nc1ccc(F)cc1)N[C@@H](CNC(=O)c1ccc(OCCNc2ncccn2)cc1O)C(=O)O [Example 87, (2S)-2-{[(4-fluoroanilino)carbonyl]amino}-3-({2-hydroxy-4-[2-(pyrimidin-2-ylamino)ethoxy]benzoyl}amino)propanoic acid] | > 1 |
| CC(=O)c1ccc(NC(=O)N[C@@H](CNC(=O)c2ccc(OCCNc3ncccn3)cc2O)C(=O)O)cc1 [Example 88, (2S)-2-{[(4-acetylanilino)carbonyl]amino}-3-({2-hydroxy-4-[2-(pyrimidin-2-ylamino)ethoxy]benzoyl}amino)propanoic acid] | > 1 |
| O=C(NCc1ccccc1)N[C@@H](CNC(=O)c1ccc(OCCNc2ncccn2)cc1O)C(=O)O [Example 92, (2S)-2-{[(benzylamino)carbonyl]amino}-3-({2-hydroxy-4-[2-(pyrimidin-2-ylamino)ethoxy]benzoyl}amino)propanoic acid] | > 1 |
| O=C(NCCc1ccccc1)N[C@@H](CNC(=O)c1ccc(OCCNc2ncccn2)cc1O)C(=O)O [Example 93, (2S)-3-({2-hydroxy-4-[2-(pyrimidin-2-ylamino)ethoxy]benzoyl}amino)-2-({[(2phenylethyl)amino]carbonyl}amino)propanoic acid] | > 1 |
